The results in this text go back to publication PMC4981850 (Scientific Reports, 2016).

Experiment [1] concerns the target T1, hDAT (human dopamine transporter) (Homo sapiens, UniProt Q01959).
T1 construct: gene SLC6A3
The experiment is described as follows: two-electrode voltage clamp (-60 mV), Xenopus oocytes expressing hDAT, inward current. The experiment is classed as cell-based. (In general: Two-electrode voltage clamp is typically applied to oocytes expressing channels or transporters.)

The target in experiment [2] is T1, hDAT (human dopamine transporter). Kind of experiment: two-electrode voltage clamp (-60 mV), Xenopus oocytes expressing hDAT, block of transporter leak current. The experiment is classed as cell-based.

T1 sequence (Q01959 whole entry): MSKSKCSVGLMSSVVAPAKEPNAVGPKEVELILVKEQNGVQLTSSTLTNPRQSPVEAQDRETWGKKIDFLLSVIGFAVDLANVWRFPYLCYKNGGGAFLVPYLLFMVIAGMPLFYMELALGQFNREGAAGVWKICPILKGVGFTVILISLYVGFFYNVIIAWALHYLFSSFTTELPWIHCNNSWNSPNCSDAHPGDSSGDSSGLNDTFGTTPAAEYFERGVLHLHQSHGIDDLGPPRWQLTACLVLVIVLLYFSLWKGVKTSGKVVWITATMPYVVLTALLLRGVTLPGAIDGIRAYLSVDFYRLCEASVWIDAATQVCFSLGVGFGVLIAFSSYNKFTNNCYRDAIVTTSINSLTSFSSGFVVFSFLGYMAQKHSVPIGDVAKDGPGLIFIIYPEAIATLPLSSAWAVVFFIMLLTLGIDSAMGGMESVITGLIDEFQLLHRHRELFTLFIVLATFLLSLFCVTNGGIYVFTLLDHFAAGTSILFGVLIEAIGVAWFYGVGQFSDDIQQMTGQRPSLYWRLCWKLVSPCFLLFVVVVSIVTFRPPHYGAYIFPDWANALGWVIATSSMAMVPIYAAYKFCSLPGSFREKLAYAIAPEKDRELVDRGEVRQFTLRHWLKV

On to `C[C@H]1NCCO[C@@H]1c1ccccc1` [2R,3R(−)-PM, (2R,3R)-(+)-3-Methyl-2-phenylmorpholine], for which the response in experiment [1] was half-maximal at 2.63 ± 0.6 µM (EC50).
Still for that read-out and setting: the result for `C[C@@H]1NCCO[C@H]1c1ccccc1` [2S,3S(+)-PM, (2S,3S)-(+)-3-Methyl-2-phenylmorpholine] reads 0.75 ± 0.14 µM.
As for `C[C@H]1[C@H](c2ccccc2)OCCN1C` [2S,3S(+)-PDM, (2S,3S)-(+)-3,4-Dimethyl-2-phenylmorpholine], in experiment [2], the EC50 (in general, the midpoint of the concentration-response curve) is 2.56 ± 0.82 µM.
The same measure, in the same setting: as for `C[C@@H]1[C@@H](c2ccccc2)OCCN1C` [2R,3R(−)-PDM, (2R,3R)-(+)-3,4-Dimethyl-2-phenylmorpholine], the figure is around 23.5 µM.
